Experimental data: patent publication US6630499B1, “Control of arthropods in animals” (Aventis CropScience, S.A., priority 1998, dated 2003)

Experiments:
Type in all cases: in vivo
[1] = system: cat fleas (Ctenocephalides felis); experiment: Control of cat fleas on treated cats (Biological Examples 1-3); conditions: cats, 20 mg/kg, 30 mg/mL in 1:1 dimethyl sulfoxide/corn oil, 1 day post-treatment, versus placebo group
Experimental: (§1) All dogs were infested with cat fleas (Ctenocephalides felis) and with ticks (Rhipicephalus sanguineus) 1 day prior to administration of the compound. Cats were only infested with fleas. The initial flea and tick counts were performed 1 day after the administration of the compounds. At 7, 14, 21 and 28 days after treatment the dogs were re-infested with ticks and 8, 15, 22 and 29 days after treatment the dogs and cats were re-infested with fleas. At 1, 9, 16, 23 and 30 days after treatment the control of fleas and ticks in treated dogs and cats was determined versus a group of infested dogs and cats which received a placebo consisting of a 1:1 volume/volume solution of dimethyl sulfoxide and corn oil. To determine the efficacies of the compounds, the arthropods were combed from the animals and counted.
(§2) The compounds listed below were formulated and tested as described in Biological Example 1, again at the dosage level of active ingredient of 10 mg/kg in dogs and 20 mg/kg in cats. Results at 1 DPT (day post-treatment) are tabulated below, where the compound numbers are the same as those listed in Tables 1, 2, 4, 5, 6, 7, 8, 9, 10, 11, 12 and 13 hereinabove.
(§3) Testing was carried out as described in Biological Example 1. […] The Huang et al compound was deemed to have insufficient activity to be tested in cats.

Emesis in treated cats = conditions: cats, 20 mg/kg
Experimental: (§4) By the term “emesis” is meant vomiting. Generally an emetic substance elicits emesis in less than 24 hours after administration, usually less than 8 hours, more usually less than 2 hours. By the term “substantially non-emetic” is meant that, generally, when a compound or composition of the invention is administered to a population of animals, more than 70% (or at least ⅔) of the animals are free of emesis. Preferably, more than 80%, most preferably more than 90%, of said population is free of emesis.
(§5) In the animals treated with the compounds above, there was substantially no emesis after 2, 8 and 24 hours. Generally long-term control of fleas and ticks was provided in dogs. In the cats treated, there was commercially acceptable control of fleas for at least one day post treatment.
as §2

[2] = system: cat fleas (Ctenocephalides felis); experiment: Control of cat fleas on treated dogs (Biological Examples 1-3); conditions: dogs, 10 mg/kg, 30 mg/mL in 1:1 dimethyl sulfoxide/corn oil, 1 day post-treatment, versus placebo group
Experimental: as §1, §2, §3

[3] = system: ticks (Rhipicephalus sanguineus); experiment: Control of ticks on treated dogs (Biological Examples 1-3); conditions: dogs, 10 mg/kg, 30 mg/mL in 1:1 dimethyl sulfoxide/corn oil, 1 day post-treatment, versus placebo group
Experimental: as §1, §2, §3

Emesis in treated dogs = conditions: dogs, 10 mg/kg
Experimental: as §4, §5, §2

CCOCC(=O)N(c1c(SC(F)(F)F)c(C#N)nn1-c1c(Cl)cc(C(F)(F)F)cc1Cl)C1CC1 [Compound 3-12]
% Control 1 DPT (Fleas) [1]: 97% | % Emesis (Emesis in treated cats): 25% | % Control 1 DPT (Fleas/Ticks): Fleas [2]: 99% | % Control 1 DPT (Fleas/Ticks): Ticks [3]: 97% | % Emesis (Emesis in treated dogs): 0%

CC(C)OCC(=O)N(C)c1c([S+]([O-])C(F)(F)F)c(C#N)nn1-c1c(Cl)cc(C(F)(F)F)cc1Cl (stereo not shown) [Compound 4-3]
% Control 1 DPT (Fleas) [1]: 100% | % Emesis (Emesis in treated cats): 25% | % Control 1 DPT (Fleas/Ticks): Fleas [2]: 100/100% | % Control 1 DPT (Fleas/Ticks): Ticks [3]: 100/100% | % Emesis (Emesis in treated dogs): 33%

CCCN(C(=O)COCC)c1c(SC(F)(F)F)c(C#N)nn1-c1c(Cl)cc(C(F)(F)F)cc1Cl [Compound 13-1]
% Control 1 DPT (Fleas) [1]: 61% | % Emesis (Emesis in treated cats): 0% | % Control 1 DPT (Fleas/Ticks): Fleas [2]: 99% | % Control 1 DPT (Fleas/Ticks): Ticks [3]: 97% | % Emesis (Emesis in treated dogs): 0%

COCC(=O)N(CC1CC1)c1c(S(=O)(=O)C(F)(F)F)c(C#N)nn1-c1c(Cl)cc(C(F)(F)F)cc1Cl [Compound 27-5]
% Control 1 DPT (Fleas) [1]: 100% | % Emesis (Emesis in treated cats): 0% | % Control 1 DPT (Fleas/Ticks): Fleas [2]: 100/100% | % Control 1 DPT (Fleas/Ticks): Ticks [3]: 100/100% | % Emesis (Emesis in treated dogs): 0%

CC(=O)OCC(=O)N(C)c1c(SC(F)(F)F)c(C#N)nn1-c1c(Cl)cc(C(F)(F)F)cc1Cl [Compound 36-1]
% Control 1 DPT (Fleas) [1]: 100% | % Emesis (Emesis in treated cats): 25% | % Control 1 DPT (Fleas/Ticks): Fleas [2]: 71% | % Control 1 DPT (Fleas/Ticks): Ticks [3]: 92% | % Emesis (Emesis in treated dogs): 0%

COC(=O)N(C)c1c(SC(F)(F)F)c(C#N)nn1-c1c(Cl)cc(C(F)(F)F)cc1Cl [Compound 67-1]
% Control 1 DPT (Fleas) [1]: 53% | % Emesis (Emesis in treated cats): 0% | % Control 1 DPT (Fleas/Ticks): Fleas [2]: 100/100% | % Control 1 DPT (Fleas/Ticks): Ticks [3]: 100/100% | % Emesis (Emesis in treated dogs): 33%

CCOC(=O)N(C)c1c(SC(F)(F)F)c(C#N)nn1-c1c(Cl)cc(C(F)(F)F)cc1Cl [Compound 68-1, 3-cyano-1-(2,6-dichloro-4-trifluoromethylphenyl)-5-(N-ethoxycarbonyl-N-methyl)amino-4-trifluoromethylthiopyrazole]
% Control 1 DPT (Fleas) [1]: 100% | % Emesis (Emesis in treated cats): 0% | % Control 1 DPT (Fleas/Ticks): Fleas [2]: 100% | % Control 1 DPT (Fleas/Ticks): Ticks [3]: 77% | % Emesis (Emesis in treated dogs): 0%

CC(C)OC(=O)N(C)c1c(SC(F)(F)F)c(C#N)nn1-c1c(Cl)cc(C(F)(F)F)cc1Cl [Compound 69-1]
% Control 1 DPT (Fleas) [1]: 100% | % Emesis (Emesis in treated cats): 0% | % Control 1 DPT (Fleas/Ticks): Fleas [2]: 98% | % Control 1 DPT (Fleas/Ticks): Ticks [3]: 94% | % Emesis (Emesis in treated dogs): 0%

CCCOC(=O)N(C)c1c(SC(F)(F)F)c(C#N)nn1-c1c(Cl)cc(C(F)(F)F)cc1Cl [Compound 70-1]
% Control 1 DPT (Fleas) [1]: 85% | % Emesis (Emesis in treated cats): 0% | % Control 1 DPT (Fleas/Ticks): Fleas [2]: 99% | % Control 1 DPT (Fleas/Ticks): Ticks [3]: 100% | % Emesis (Emesis in treated dogs): 0%

CCN(C(=O)OC)c1c(SC(F)(F)F)c(C#N)nn1-c1c(Cl)cc(C(F)(F)F)cc1Cl [Compound 71-1]
% Control 1 DPT (Fleas) [1]: 100% | % Emesis (Emesis in treated cats): 50% | % Control 1 DPT (Fleas/Ticks): Fleas [2]: 100/100% | % Control 1 DPT (Fleas/Ticks): Ticks [3]: 100/100% | % Emesis (Emesis in treated dogs): 0%

CCOC(=O)N(CC)c1c(SC(F)(F)F)c(C#N)nn1-c1c(Cl)cc(C(F)(F)F)cc1Cl [Compound 72-1]
% Control 1 DPT (Fleas) [1]: 99% | % Emesis (Emesis in treated cats): 0% | % Control 1 DPT (Fleas/Ticks): Fleas [2]: 100% | % Control 1 DPT (Fleas/Ticks): Ticks [3]: 97% | % Emesis (Emesis in treated dogs): 0%

CCN(C(=O)OC(C)C)c1c(SC(F)(F)F)c(C#N)nn1-c1c(Cl)cc(C(F)(F)F)cc1Cl [Compound 73-1]
% Control 1 DPT (Fleas) [1]: 93% | % Emesis (Emesis in treated cats): 0% | % Control 1 DPT (Fleas/Ticks): Fleas [2]: 100/100% | % Control 1 DPT (Fleas/Ticks): Ticks [3]: 100/100% | % Emesis (Emesis in treated dogs): 0%

CCCOC(=O)N(CC)c1c(SC(F)(F)F)c(C#N)nn1-c1c(Cl)cc(C(F)(F)F)cc1Cl [Compound 74-1]
% Control 1 DPT (Fleas) [1]: 100% | % Emesis (Emesis in treated cats): 0% | % Control 1 DPT (Fleas/Ticks): Fleas [2]: 99% | % Control 1 DPT (Fleas/Ticks): Ticks [3]: 87% | % Emesis (Emesis in treated dogs): 0%

CCCN(C(=O)OC)c1c(SC(F)(F)F)c(C#N)nn1-c1c(Cl)cc(C(F)(F)F)cc1Cl [Compound 75-1]
% Control 1 DPT (Fleas) [1]: 71% | % Emesis (Emesis in treated cats): 25% | % Control 1 DPT (Fleas/Ticks): Fleas [2]: 89% | % Control 1 DPT (Fleas/Ticks): Ticks [3]: 57% | % Emesis (Emesis in treated dogs): 0%

CCCN(C(=O)OCC)c1c(SC(F)(F)F)c(C#N)nn1-c1c(Cl)cc(C(F)(F)F)cc1Cl [Compound 76-1]
% Control 1 DPT (Fleas) [1]: 100% | % Emesis (Emesis in treated cats): 0% | % Control 1 DPT (Fleas/Ticks): Fleas [2]: 100% | % Control 1 DPT (Fleas/Ticks): Ticks [3]: 86% | % Emesis (Emesis in treated dogs): 0%

CCCN(C(=O)OC(C)C)c1c(SC(F)(F)F)c(C#N)nn1-c1c(Cl)cc(C(F)(F)F)cc1Cl [Compound 77-1]
% Control 1 DPT (Fleas) [1]: 99% | % Emesis (Emesis in treated cats): 0% | % Control 1 DPT (Fleas/Ticks): Fleas [2]: 98% | % Control 1 DPT (Fleas/Ticks): Ticks [3]: 10% | % Emesis (Emesis in treated dogs): 0%

COC(=O)N(c1c(SC(F)(F)F)c(C#N)nn1-c1c(Cl)cc(C(F)(F)F)cc1Cl)C(C)C [Compound 79-1]
% Control 1 DPT (Fleas) [1]: 87% | % Emesis (Emesis in treated cats): 0% | % Control 1 DPT (Fleas/Ticks): Fleas [2]: 96% | % Control 1 DPT (Fleas/Ticks): Ticks [3]: 86% | % Emesis (Emesis in treated dogs): 0%

CCOC(=O)N(c1c(SC(F)(F)F)c(C#N)nn1-c1c(Cl)cc(C(F)(F)F)cc1Cl)C(C)C [Compound 80-1]
% Control 1 DPT (Fleas) [1]: 99% | % Emesis (Emesis in treated cats): 0% | % Control 1 DPT (Fleas/Ticks): Fleas [2]: 100% | % Control 1 DPT (Fleas/Ticks): Ticks [3]: 94% | % Emesis (Emesis in treated dogs): 0%

CC(C)OC(=O)N(c1c(SC(F)(F)F)c(C#N)nn1-c1c(Cl)cc(C(F)(F)F)cc1Cl)C(C)C [Compound 81-1]
% Control 1 DPT (Fleas) [1]: 100% | % Emesis (Emesis in treated cats): 0% | % Control 1 DPT (Fleas/Ticks): Fleas [2]: 76% | % Control 1 DPT (Fleas/Ticks): Ticks [3]: 66% | % Emesis (Emesis in treated dogs): 0%

COCCOCC(=O)N(C)c1c(S(=O)(=O)C(F)(F)F)c(C#N)nn1-c1c(Cl)cc(C(F)(F)F)cc1Cl [Compound 120-1]
% Control 1 DPT (Fleas) [1]: 100% | % Emesis (Emesis in treated cats): 0% | % Control 1 DPT (Fleas/Ticks): Fleas [2]: 97% | % Control 1 DPT (Fleas/Ticks): Ticks [3]: 78% | % Emesis (Emesis in treated dogs): 0%

CCC(=O)N(C)c1c(SC(F)(F)F)c(C#N)nn1-c1c(Cl)cc(C(F)(F)F)cc1Cl [Compound 123-1]
% Control 1 DPT (Fleas) [1]: 100% | % Emesis (Emesis in treated cats): 25% | % Control 1 DPT (Fleas/Ticks): Fleas [2]: 74% | % Control 1 DPT (Fleas/Ticks): Ticks [3]: 0% | % Emesis (Emesis in treated dogs): 0%

CN(C(=O)c1ccc(C(F)(F)F)cc1)c1c(SC(F)(F)F)c(C#N)nn1-c1c(Cl)cc(C(F)(F)F)cc1Cl [Compound 127-1]
% Control 1 DPT (Fleas) [1]: 84% | % Emesis (Emesis in treated cats): 0% | % Control 1 DPT (Fleas/Ticks): Fleas [2]: 100% | % Control 1 DPT (Fleas/Ticks): Ticks [3]: 97% | % Emesis (Emesis in treated dogs): 0%

CN(C(=O)c1ccco1)c1c(SC(F)(F)F)c(C#N)nn1-c1c(Cl)cc(C(F)(F)F)cc1Cl [Compound 130-1]
% Control 1 DPT (Fleas) [1]: 93% | % Emesis (Emesis in treated cats): 25% | % Control 1 DPT (Fleas/Ticks): Fleas [2]: 100/100% | % Control 1 DPT (Fleas/Ticks): Ticks [3]: 100/100% | % Emesis (Emesis in treated dogs): 0%
